We go through two molecules from paper PMC12441834, “Highly Potent and Subtype-Selective Sperm-Specific Potassium Channel SLO3 Inhibitors Display High Tissue Exposure in the Murine Female Reproductive Tract” (ACS Pharmacology & Translational Science, 2025).

Series [1] addresses T1, mouse SLO3 (KSper currents in mouse sperm) (Mus musculus, UniProt O54982).
T1 construct: sperm were isolated from the corpus epididymis by swim-out; endogenous in cells; host or cells: C57Bl/6 mouse corpus epididymal sperm
T1 sequence (O54982 1-1121): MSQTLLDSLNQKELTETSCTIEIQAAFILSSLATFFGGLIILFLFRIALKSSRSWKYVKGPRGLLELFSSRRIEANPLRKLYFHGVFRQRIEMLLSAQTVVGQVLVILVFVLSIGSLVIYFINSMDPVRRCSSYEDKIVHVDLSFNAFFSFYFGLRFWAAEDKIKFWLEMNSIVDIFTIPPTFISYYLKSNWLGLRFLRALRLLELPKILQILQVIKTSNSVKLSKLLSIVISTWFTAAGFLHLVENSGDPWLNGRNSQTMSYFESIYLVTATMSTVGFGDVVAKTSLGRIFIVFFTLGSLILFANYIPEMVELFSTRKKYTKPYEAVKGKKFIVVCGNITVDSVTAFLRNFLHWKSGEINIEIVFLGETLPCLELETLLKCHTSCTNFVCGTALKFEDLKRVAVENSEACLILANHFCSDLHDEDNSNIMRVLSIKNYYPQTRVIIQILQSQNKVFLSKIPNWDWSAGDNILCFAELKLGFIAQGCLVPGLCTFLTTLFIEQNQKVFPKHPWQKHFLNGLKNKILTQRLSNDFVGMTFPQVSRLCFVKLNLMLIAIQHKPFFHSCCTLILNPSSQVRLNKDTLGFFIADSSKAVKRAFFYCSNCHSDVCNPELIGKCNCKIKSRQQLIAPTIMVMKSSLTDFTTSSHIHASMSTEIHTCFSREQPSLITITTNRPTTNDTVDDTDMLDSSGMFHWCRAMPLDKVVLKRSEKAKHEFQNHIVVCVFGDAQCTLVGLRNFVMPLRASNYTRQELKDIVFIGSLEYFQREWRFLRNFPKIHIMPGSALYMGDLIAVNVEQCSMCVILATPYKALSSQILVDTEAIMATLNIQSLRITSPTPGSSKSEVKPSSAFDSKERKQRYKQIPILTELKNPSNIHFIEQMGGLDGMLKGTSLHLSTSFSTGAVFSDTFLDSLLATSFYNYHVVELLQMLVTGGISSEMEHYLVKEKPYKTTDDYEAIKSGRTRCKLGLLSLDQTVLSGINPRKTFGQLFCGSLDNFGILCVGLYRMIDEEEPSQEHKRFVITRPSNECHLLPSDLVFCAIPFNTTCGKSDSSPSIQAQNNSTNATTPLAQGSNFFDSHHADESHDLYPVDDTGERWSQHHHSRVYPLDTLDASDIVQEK
T1 sequence (Q5M8M9 24-314 partner): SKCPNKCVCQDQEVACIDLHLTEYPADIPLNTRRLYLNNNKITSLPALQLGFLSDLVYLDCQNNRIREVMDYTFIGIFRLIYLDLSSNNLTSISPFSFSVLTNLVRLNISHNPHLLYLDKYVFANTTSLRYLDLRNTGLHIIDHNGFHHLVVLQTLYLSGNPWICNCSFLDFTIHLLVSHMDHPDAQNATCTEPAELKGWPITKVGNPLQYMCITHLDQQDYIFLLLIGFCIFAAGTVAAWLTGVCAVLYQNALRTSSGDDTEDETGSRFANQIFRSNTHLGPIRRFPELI
In words: Whole-cell recording of KSper currents in mouse sperm. It counts as cell-based. Particulars: for Hill coefficient: mouse sperm KSper currents; for IC50: whole-cell recordings from mouse sperm. Here is the method: Electrophysiology: C57Bl/6 sexually mature male mice (60–90 days old) were euthanized by inhalation of CO2 followed by cervical dislocation and sperm were isolated from the corpus epididymis by swim-out. Then the sperm suspension was collected and centrifuged (500×g, 6 min) twice to purify the sperm. HEPES-buffered saline (HS) was used for sperm swim-out and storage. It contained (in mM): 135 NaCl, 5 KCl, 1 MgSO4, 2 CaCl2, 20 HEPES, 5 glucose, 10 lactic acid, and 1 Na·pyruvate at pH 7.4. The sperm suspension was kept at room temperature (∼22 °C) for 4–6 h until recording. All animal husbandry and experimental procedures were approved by the Animal Studies Committee of the Washington University in St. Louis School of Medicine.
Voltage-clamp recordings were performed using an Axopatch 200B amplifier (Molecular Devices). Recordings were filtered at 5 kHz with the internal filter of the amplifier and digitized at 50 kHz using a Digidata 1550B digitizer (Molecular Devices). Recording pipettes were pulled from borosilicate glass with tip resistances of 3–8 MΩ after filling with pipette solution containing (in mM): 140 KMES, 1 EGTA, 10 HEPES, pH 7.4 with KOH. Bath solutions contained (in mM): 135 NaMES, 5 KMES, 2 MgCl2, and 10 HEPES, pH 7.4 with NaOH. Experiments were performed at room temperature (∼22 °C). Whole-cell currents were evoked from a holding potential of −60 mV in steps from −80 to +100 mV in 10 mV increments. Test compounds were prepared daily from a 10 mM stock solution (in DMSO).
For mouse sperm recordings, the pipettes were fire-polished with Microforge MF-830 (Narishige, Japan) to reach tip resistances of 8–12 MΩ. The giga-ohm (GΩ) seals were formed between the glass micropipette and the sperm cytoplasmic droplet in HS solution. Break-in to whole-cell mode was achieved by applying short (1–5 ms) voltage pulses of 488–888 mV.
Data were analyzed with a pClamp 10.6 (Molecular Devices). VU6047606 and VU6032735 inhibition dose–response relationships were fit by the Hill equation in OriginPro 7.5 (OriginLab Corporation): R=1/1+(C/IC50)^n+Ioff , in which R is fractional unblock, C is compound concentration, IC50 is the half inhibition concentration, n is the Hill coefficient, and I off is an offset item for leak current. Error bars in the figures represent the SDs. Each data point is averaged from at least 5 measurements. Curve-fitting results are reported as the fitted values with standard error, which was estimated by OriginPro according to the Error Propagation formula.

A short description of series [2]: Multispecies hepatocyte MetID. It counts as in vitro ADME, cynomolgus monkey. Particulars: 4 h incubation with hepatocytes, 10 μM. As to the method: Metabolites were identified after preincubating each compound at a 10 μM final concentration with 2.5 × 10^5 hepatocytes from human, dog, cynomolgus monkey, and rat in 200 μL of Optiincubate buffer (BioIVT, Westbury, NY). […] After centrifugation, 60 μL of the supernatant was transferred to 60 μL of water for LC-MS analysis. Samples were analyzed using a Thermo Scientific Vanquish UHPLC consisting of a VH-P10-A pump, a VH-A10-A sampler module, a VH-C10-A column compartment, and the VF-D11-A UV detector coupled to an Orbitrap Fusion Lumos instrument with UVPD. A binary solvent system consisting of (A) water with 0.1% formic acid and (B) acetonitrile with 0.1% formic acid was used with an Accucore Vanquish C18+, 2.1 mm × 100 mm, 1.5 μm, UHPLC column maintained at 40 °C. The data generated by data-dependent acquisition via normal acquisition and AcquireX were processed manually with Thermo Scientific FreeStyle and assisted by Compound Discoverer 3.3.1.111 to aid in the structural assignments.

Series [3] concerns the target Transporter, Norepinephrine (NET) (Homo sapiens, UniProt P23975). Put plainly: LeadProfilingScreen radioligand binding.

Values joined by “and” are separate entries in the source; they are usually repeats but may differ in a detail not shown here. Equal entries are not always repeated. Where two headings read alike, the source gives them in different places. Some results are limits rather than exact numbers.

Chain of Transporter, Norepinephrine (NET) (P23975 whole entry): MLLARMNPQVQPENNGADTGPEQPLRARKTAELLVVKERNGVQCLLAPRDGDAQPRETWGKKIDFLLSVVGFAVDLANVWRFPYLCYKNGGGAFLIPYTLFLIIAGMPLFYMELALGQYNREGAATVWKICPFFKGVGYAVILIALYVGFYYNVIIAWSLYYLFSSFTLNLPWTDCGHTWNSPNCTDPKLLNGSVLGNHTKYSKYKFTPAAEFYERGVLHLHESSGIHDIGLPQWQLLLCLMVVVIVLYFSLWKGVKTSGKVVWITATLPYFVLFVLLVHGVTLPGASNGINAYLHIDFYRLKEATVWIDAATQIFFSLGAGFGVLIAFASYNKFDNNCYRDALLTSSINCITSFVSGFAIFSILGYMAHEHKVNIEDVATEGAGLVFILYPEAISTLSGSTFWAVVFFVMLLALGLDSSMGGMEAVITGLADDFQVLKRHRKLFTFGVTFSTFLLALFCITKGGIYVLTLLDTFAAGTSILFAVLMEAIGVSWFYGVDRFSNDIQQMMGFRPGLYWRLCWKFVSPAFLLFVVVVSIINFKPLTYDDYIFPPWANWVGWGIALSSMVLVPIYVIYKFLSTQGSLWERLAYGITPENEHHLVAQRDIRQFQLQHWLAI

In the case of `O=C(c1ccc(OCc2ccc(OC(F)(F)F)cc2)cc1)N1CCN(c2ccc(C(F)(F)F)cn2)CC1` [VU6032735], in series [1] (mouse sperm), the “fold more potent than VU6047606 on mouse SLO3 currents” value is recorded as around 1.6 fold. Also, the Hill coefficient in series [1] was 0.78 ± 0.07. Also, the IC50 in series [1] (read-out: mSLO3 IC50 (mouse sperm)) turned out to be 910 nM. In addition, in series [2], the “% of Parent Related Material, Cyno” value is on record as above 98%. Besides, in series [3], the inhibition at 10 µM was 30%.

As for `Cc1cc(Cl)cc2sc(O[C@H]3CCN(C(=O)CCCS(=O)(=O)c4cccc(Br)c4)C[C@H]3F)nc12` [VU6047606], in series [1], the Hill coefficient stood at 1.02 ± 0.12. Also, the IC50 in series [1] (currents at +100 mV, read-out: mSLO3 IC50 (mouse sperm KSper currents)) stood at 1470 nM. Also, in series [2], the “% of Parent Related Material, Cyno” value was 82.77% and > 82%. The molecule further came in with an inhibition at 10 µM in series [3] of 44%.

One may read the Hill coefficient as the slope factor of the fitted curve. By IC50 is commonly meant the concentration that inhibits the measured activity by half. One may read the inhibition as the change of the read-out against control, counted positive when it falls. Low readings indicate a response near the control, high ones a response far below the control.
